Reference: ChEMBL document CHEMBL5149962, “Targeting KRAS mutant cancers by preventing signaling transduction in the MAPK pathway” (Eur J Med Chem, 2021)
Blank lines part the entries; values can stand above or below the compound they belong to.

How the values were obtained:
[1] = Inhibition of mammalian GGTase-1 expressed in Sf9 cells using wildtype His-tagged RAS-CVLL as substrate assessed as inhibition of substrate plasma membrane localisation; type: cell membranes, Mammalia
[2] = Competitive binding of mammalian GGTase-1 expressed in Sf9 cells assessed as inhibition of 3H-GGPP binding to RAS using Ras-CVLL as substrate incubated for 10 mins; set-up: species or system Mammalia
NIH3T3 [3] = experiment: Antitumor activity against mouse NIH3T3 cells transfected with KRAS4B xenografted nude mouse assessed as inhibition of tumor growth at 35 mg/kg, ip administered in the presence of FTI-276 relative to control; type: functional; set-up: scale not given: the % may be the effect or the level left
Calu-1 = experiment: Antitumor activity against human Calu-1 cells transfected with KRAS mutant xenografted nude mouse assessed as inhibition of tumor growth at 70 mg/kg, ip administrated once daily measure for 40 to 80 days relative to control; type: functional; set-up: scale not given: the % may be the effect or the level left; settings: time 40-80 day
NIH3T3 [4] = experiment: Antitumor activity against mouse NIH3T3 cells transfected with H-Ras CVLS xenografted nude mouse assessed as inhibition of tumor growth at 70 mg/kg, ip administered once daily relative to control; type: functional; set-up: scale not given: the % may be the effect or the level left
MIA PaCa-2 = experiment: Cytotoxicity against human MIA PaCa-2 cells harboring KRAS G12C mutant assessed as reduction in cell viability measured after 48 hrs by MTT assay; type: functional, cell-based; settings: MIA PaCa-2, 48 h
HCT-116 = experiment: Cytotoxicity against human HCT-116 cells harboring KRAS G13D mutant assessed as reduction in cell viability measured after 48 hrs by MTT assay; type: functional, cell-based; settings: HCT-116, 48 h
PANC-1 = experiment: Cytotoxicity against human PANC-1 cells harboring KRAS G12D mutant assessed as reduction in cell viability measured after 48 hrs by MTT assay; type: functional, cell-based; settings: PANC-1, 48 h
MDA-MB-231 = experiment: Cytotoxicity against human MDA-MB-231 cells harboring KRAS G13D mutant assessed as reduction in cell viability measured after 48 hrs by MTT assay; type: functional, cell-based; settings: MDA-MB-231, 48 h
NCI-H460 = experiment: Cytotoxicity against human NCI-H460 cells harboring KRAS […] mutant assessed as reduction in cell viability measured after 48 hrs by MTT assay; type: functional, cell-based; settings: NCI-H460, 48 h
SW-620 = experiment: Cytotoxicity against human SW-620 cells harboring KRAS G12V mutant assessed as reduction in cell viability measured after 48 hrs by MTT assay; type: functional

IC50 [1]: 2 µM
Structure (SMILES): CSCCc1c(-c2cccnc2)nn(-c2ccc(Cl)c(Cl)c2)c1OCCCC(=O)N[C@@H](Cc1ccccc1)C(N)=O
Ki [2]: 0.0008 µM

Structure (SMILES): CC(C)C[C@H](NC(=O)c1ccc(NC[C@@H](N)CS)cc1-c1cccc2ccccc12)C(=O)O
Activity (NIH3T3 [3]): 65% | Activity (Calu-1): 60% | Activity (NIH3T3 [4]): 40%

Structure (SMILES): CCCc1c(OCCCCCOc2coc(CO)cc2=O)ccc(Cl)c1Cl
IC50 (MIA PaCa-2): 10.2 µM | IC50 (HCT-116): 8 µM | IC50 (PANC-1): 17.3 µM | IC50 (MDA-MB-231): 7 µM | IC50 (NCI-H460): 15 µM | IC50 (SW-620): 37.1 µM
